The compounds below were run on HCV 1b_Huh-Luc/Neo-ET cell line persistently expressing a bicistronic genotype 1b replicon in Huh 7 cells (assay: HCV replicon assay (luciferase readout)). Conditions: Hepatitis C virus, Huh-7, 72 h, read-out: Inhibition of HCV genotype 1b.
Assay type: cell-based
Protocol: Biological activity of the compounds of the invention was determined using an HCV replicon assay. The HCV 1b_Huh-Luc/Neo-ET cell line persistently expressing a bicistronic genotype 1b replicon in Huh 7 cells was obtained from ReBLikon GMBH. This cell line was used to test compound inhibition using luciferase enzyme activity readout as a measurement of compound inhibition of replicon levels.
On Day 1 (the day after plating), each compound is added in triplicate to the cells. Plates incubated for 72 h prior to running the luciferase assay. Enzyme activity was measured using a Bright-Glo Kit (cat. number E2620) manufactured by Promega Corporation. The following equation was used to generate a percent control value for each compound. % Control=(Average Compound Value/Average Control)*100
The EC50 value was determined using GraphPad Prism and the following equation: Y=Bottom+(Top−Bottom)/(1+10^((Log IC50−X)*HillSlope))
EC50 values of compounds are determined several times in the replicon assay.
Example compounds of the disclosed invention are illustrated in Tables 1-14 attached as appendices. The tables show inhibitory activity of many of the example compounds with respect to HCV 1b. […] The tables further provide mass spectrometry results for the synthesized example compounds.
`CC(C)[C@@H](NC(=O)C1CC1)C(=O)N1CCC[C@H]1c1ncc(-c2ccc(C#Cc3ccc(-c4cnc([C@@H]5CCCN5C(=O)[C@H](NC(=O)C5CC5)C(C)C)[nH]4)cc3)cc2)[nH]1` [Compound 155] showed an EC50 of 1 to 9.9 nM.
With `COC(=O)N[C@@H](C(=O)N1CCC[C@H]1c1ncc(-c2ccc(C#Cc3ccc(-c4cnc([C@@H]5CCCN5C(=O)[C@H](NC(=O)OC)c5ccccc5)[nH]4)cc3)cc2)[nH]1)c1ccccc1` [Compound 156] the EC50 was < 1 nM.
`O=C([C@H](O)c1ccccc1)N1CCC[C@H]1c1ncc(-c2ccc(C#Cc3ccc(-c4cnc([C@@H]5CCCN5C(=O)[C@H](O)c5ccccc5)[nH]4)cc3)cc2)[nH]1` [Compound 157] was tested, and the EC50 was < 1 nM.
In the case of `CC(=O)N[C@@H](C(=O)N1CCC[C@H]1c1ncc(-c2ccc(C#Cc3ccc(-c4cnc([C@@H]5CCCN5C(=O)[C@H](NC(C)=O)c5ccccc5)[nH]4)cc3)cc2)[nH]1)c1ccccc1` [Compound 158], the EC50 is reported as < 1 nM.
For `CN1CCN(C(=O)N[C@@H](C(=O)N2CCC[C@H]2c2ncc(-c3ccc(C#Cc4ccc(-c5cnc([C@@H]6CCCN6C(=O)[C@H](NC(=O)N6CCN(C)CC6)c6ccccc6)[nH]5)cc4)cc3)[nH]2)c2ccccc2)CC1` [Compound 159], the EC50 was < 1 nM.
For `CN(C)[C@@H](C(=O)N1CCC[C@H]1c1ncc(-c2ccc(C#Cc3ccc(-c4cnc([C@@H]5CCCN5C(=O)[C@@H](c5ccccc5)N(C)C)[nH]4)cc3)cc2)[nH]1)c1ccccc1` [Compound 160], the EC50 was < 1 nM.
With `CN(C)C(=O)N[C@@H](C(=O)N1CCC[C@H]1c1ncc(-c2ccc(C#Cc3ccc(-c4cnc([C@@H]5CCCN5C(=O)[C@H](NC(=O)N(C)C)c5ccccc5)[nH]4)cc3)cc2)[nH]1)c1ccccc1` [Compound 161] the EC50 was < 1 nM.
In the case of `CNC(=O)N[C@@H](C(=O)N1CCC[C@H]1c1ncc(-c2ccc(C#Cc3ccc(-c4cnc([C@@H]5CCCN5C(=O)[C@H](NC(=O)NC)c5ccccc5)[nH]4)cc3)cc2)[nH]1)c1ccccc1` [Compound 162], the EC50 is reported as < 1 nM.
For `CC(C)(C)OC(=O)N[C@@H](C(=O)N1CCC[C@H]1C(=O)Nc1ccc(C#Cc2ccc(-c3cnc([C@@H]4CCCN4C(=O)[C@H](NC(=O)OC(C)(C)C)c4ccccc4)[nH]3)cc2)cc1)c1ccccc1` [Compound 163], the EC50 was < 1 nM.
`CC(C)[C@H](NC(=O)OC(C)(C)C)C(=O)N1CCC[C@H]1c1ncc(-c2ccc(C#Cc3ccc(-c4cnc([C@@H]5CCCN5C(=O)[C@@H](NC(=O)OC(C)(C)C)C(C)C)[nH]4)cc3)cc2)[nH]1` [Compound 165] showed an EC50 of 10 to 999 nM.
For `O=C(N[C@@H](C(=O)N1CCC[C@H]1C(=O)Nc1ccc(C#Cc2ccc(-c3cnc([C@@H]4CCCN4C(=O)[C@H](NC(=O)C4CC4)c4ccccc4)[nH]3)cc2)cc1)c1ccccc1)C1CC1` [Compound 166], the EC50 was < 1 nM.
In the case of `C[C@@H](NC(=O)[C@@H]1CCCN1C(=O)[C@H](NC(=O)OC(C)(C)C)c1ccccc1)c1ccc(C#Cc2ccc(-c3cnc([C@@H]4CCCN4C(=O)[C@H](NC(=O)OC(C)(C)C)c4ccccc4)[nH]3)cc2)cc1` [Compound 167], the EC50 is reported as 1 to 9.9 nM.
`C[C@@H](NC(=O)[C@@H]1CCCN1C(=O)[C@H](NC(=O)C1CC1)c1ccccc1)c1ccc(C#Cc2ccc(-c3cnc([C@@H]4CCCN4C(=O)[C@H](NC(=O)C4CC4)c4ccccc4)[nH]3)cc2)cc1` [Compound 168] was tested, and the EC50 was < 1 nM.
`C[C@H](NC(=O)[C@@H]1CCCN1C(=O)[C@H](NC(=O)OC(C)(C)C)c1ccccc1)c1ccc(C#Cc2ccc(-c3cnc([C@@H]4CCCN4C(=O)[C@H](NC(=O)OC(C)(C)C)c4ccccc4)[nH]3)cc2)cc1` [Compound 169] gave an EC50 of 1 to 9.9 nM.
Work on `CC(C)[C@H](NC(=O)C1CC1)C(=O)N1CCC[C@H]1c1ncc(-c2ccc(C#Cc3ccc(-c4cnc([C@@H]5CCCN5C(=O)[C@@H](NC(=O)C5CC5)C(C)C)[nH]4)cc3)cc2)[nH]1` [Compound 170] yielded an EC50 of 1 to 9.9 nM.
With `COC(=O)N[C@@H](C(=O)N1CCC[C@H]1C(=O)Nc1ccc(C#Cc2ccc(-c3cnc([C@@H]4CCCN4C(=O)[C@H](NC(=O)OC)c4ccccc4)[nH]3)cc2)cc1)c1ccccc1` [Compound 171] the EC50 was < 1 nM.
`CO[C@@H](C(=O)N1CCC[C@H]1c1ncc(-c2ccc(C#Cc3ccc(-c4cnc([C@@H]5CCCN5C(=O)[C@H](OC)c5ccccc5)[nH]4)cc3)cc2)[nH]1)c1ccccc1` [Compound 172] was tested, and the EC50 was < 1 nM.
In the case of `CCN(CC)[C@@H](C(=O)N1CCC[C@H]1c1ncc(-c2ccc(C#Cc3ccc(-c4cnc([C@@H]5CCCN5C(=O)[C@@H](c5ccccc5)N(CC)CC)[nH]4)cc3)cc2)[nH]1)c1ccccc1` [Compound 173], the EC50 is reported as < 1 nM.
In the case of `COC(=O)N[C@@H](C(=O)N1CCC[C@H]1c1ncc(-c2ccc(C#Cc3ccc(-c4cnc([C@@H]5CCCN5C(=O)[C@@H](c5ccccc5)N(C)C)[nH]4)cc3)cc2)[nH]1)c1ccccc1` [Compound 174], the EC50 is reported as < 1 nM.
In the case of `CCN(CC)[C@@H](C(=O)N1CCC[C@H]1c1ncc(-c2ccc(C#Cc3ccc(-c4cnc([C@@H]5CCCN5C(=O)[C@H](NC(=O)OC)c5ccccc5)[nH]4)cc3)cc2)[nH]1)c1ccccc1` [Compound 175], the EC50 is reported as < 1 nM.
In the case of `COC(=O)N[C@@H](C(=O)N1CCC[C@H]1c1ncc(-c2ccc(C#Cc3ccc(-c4cnc([C@@H]5CCCN5C(=O)c5nccn5C)[nH]4)cc3)cc2)[nH]1)c1ccccc1` [Compound 176], the EC50 is reported as < 1 nM.
For `COC(=O)N[C@@H](C(=O)N1CCC[C@H]1c1ncc(-c2ccc(C#Cc3ccc(-c4cnc([C@@H]5CCCN5C(=O)[C@H]5CCCO5)[nH]4)cc3)cc2)[nH]1)c1ccccc1` [Compound 177], the EC50 was < 1 nM.
For `COC(=O)N[C@@H](C(=O)N1CCC[C@H]1c1ncc(-c2ccc(C#Cc3ccc(-c4cnc([C@@H]5CCCN5C(=O)[C@@H](c5ccccc5)N5CCCC5)[nH]4)cc3)cc2)[nH]1)c1ccccc1` [Compound 178], the EC50 was < 1 nM.
For `COC(=O)N[C@@H](C(=O)N1CCC[C@H]1c1ncc(-c2ccc(C#Cc3ccc(-c4cnc([C@@H]5CCCN5C(=O)[C@H](OC)c5ccccc5)[nH]4)cc3)cc2)[nH]1)c1ccccc1` [Compound 179], the EC50 was < 1 nM.
With `COC(=O)N[C@H](Cc1ccccc1)C(=O)N1CCC[C@H]1c1ncc(-c2ccc(C#Cc3ccc(-c4cnc([C@@H]5CCCN5C(=O)[C@H](NC(=O)OC)c5ccccc5)[nH]4)cc3)cc2)[nH]1` [Compound 180] the EC50 was < 1 nM.
For `COC(=O)N[C@@H](C(=O)N1CCC[C@H]1c1ncc(-c2ccc(C#Cc3ccc(-c4cnc([C@@H]5CCCN5C(=O)Cc5cccnc5)[nH]4)cc3)cc2)[nH]1)c1ccccc1` [Compound 181], the EC50 was < 1 nM.
In the case of `COC(=O)N[C@@H](C(=O)N1CCC[C@H]1c1ncc(-c2ccc(C#Cc3ccc(-c4cnc([C@@H]5CCCN5C(=O)C5CCN(C)CC5)[nH]4)cc3)cc2)[nH]1)c1ccccc1` [Compound 182], the EC50 is reported as < 1 nM.
In the case of `COC(=O)N[C@@H](C(=O)N1CCC[C@H]1c1ncc(-c2ccc(C#Cc3ccc(-c4cnc([C@@H]5CCCN5C(=O)c5cccnc5)[nH]4)cc3)cc2)[nH]1)c1ccccc1` [Compound 183], the EC50 is reported as < 1 nM.
In the case of `O=C([C@@H](c1ccccc1)N1CCOCC1)N1CCC[C@H]1c1ncc(-c2ccc(C#Cc3ccc(-c4cnc([C@@H]5CCCN5C(=O)[C@@H](c5ccccc5)N5CCOCC5)[nH]4)cc3)cc2)[nH]1` [Compound 184], the EC50 is reported as < 1 nM.
With `COC(=O)N[C@@H](C(=O)N1CCC[C@H]1c1ncc(-c2ccc(C#Cc3ccc(-c4cnc([C@@H]5CCCN5C(=O)[C@@H](c5ccccc5)N5CCOCC5)[nH]4)cc3)cc2)[nH]1)c1ccccc1` [Compound 185] the EC50 was < 1 nM.
With `COC(=O)N[C@@H](C(=O)N1CCC[C@H]1c1ncc(-c2ccc(C#Cc3ccc(-c4cnc([C@@H]5CCCN5C(=O)[C@@H]5CCCO5)[nH]4)cc3)cc2)[nH]1)c1ccccc1` [Compound 186] the EC50 was < 1 nM.
`COC(=O)N[C@@H](C(=O)N1CCC[C@H]1c1ncc(-c2ccc(C#Cc3ccc(-c4cnc([C@@H]5CCCN5C(=O)[C@H]5CCCN5C)[nH]4)cc3)cc2)[nH]1)c1ccccc1` [Compound 187] was tested, and the EC50 was < 1 nM.
`COC(=O)N[C@@H](C(=O)N1CCC[C@H]1c1ncc(-c2ccc(C#Cc3ccc(-c4cnc([C@@H]5CCCN5C(=O)[C@@H](c5ccccc5)N5CCCCC5)[nH]4)cc3)cc2)[nH]1)c1ccccc1` [Compound 188] was tested, and the EC50 was < 1 nM.
In the case of `CC(C)(C)OC(=O)N[C@@H](C(=O)N1CCC[C@H]1C(=O)NCc1ccc(C#Cc2ccc(-c3cnc([C@@H]4CCCN4C(=O)[C@H](NC(=O)OC(C)(C)C)c4ccccc4)[nH]3)cc2)cc1)c1ccccc1` [Compound 189], the EC50 is reported as < 1 nM.
With `O=C(N[C@@H](C(=O)N1CCC[C@H]1C(=O)NCc1ccc(C#Cc2ccc(-c3cnc([C@@H]4CCCN4C(=O)[C@H](NC(=O)C4CC4)c4ccccc4)[nH]3)cc2)cc1)c1ccccc1)C1CC1` [Compound 190] the EC50 was < 1 nM.
In the case of `C[C@H](NC(=O)[C@@H]1CCCN1C(=O)[C@H](NC(=O)C1CC1)c1ccccc1)c1ccc(C#Cc2ccc(-c3cnc([C@@H]4CCCN4C(=O)[C@H](NC(=O)C4CC4)c4ccccc4)[nH]3)cc2)cc1` [Compound 191], the EC50 is reported as < 1 nM.
For `CC(C)(C)OC(=O)N[C@@H](C(=O)N1CCC[C@H]1CNC(=O)c1ccc(C#Cc2ccc(-c3cnc([C@@H]4CCCN4C(=O)[C@H](NC(=O)OC(C)(C)C)c4ccccc4)[nH]3)cc2)cc1)c1ccccc1` [Compound 192], the EC50 was 1 to 9.9 nM.
For `O=C(NC[C@@H]1CCCN1C(=O)[C@H](NC(=O)C1CC1)c1ccccc1)c1ccc(C#Cc2ccc(-c3cnc([C@@H]4CCCN4C(=O)[C@H](NC(=O)C4CC4)c4ccccc4)[nH]3)cc2)cc1` [Compound 193], the EC50 was < 1 nM.
With `O=C([C@@H](c1ccccc1)N1CCCC1)N1CCC[C@H]1c1ncc(-c2ccc(C#Cc3ccc(-c4cnc([C@@H]5CCCN5C(=O)[C@@H](c5ccccc5)N5CCCC5)[nH]4)cc3)cc2)[nH]1` [Compound 194] the EC50 was < 1 nM.

Reference: patent publication US8865756B2, “Inhibitors of HCV NS5A” (Presidio Pharmaceuticals, Inc., priority 2008, dated 2014)
